Reference: patent EP4173621A1 (priority 2021, dated 2023)
pIC50: −log10 of the molar value. Read-outs that look alike come from different tables or passages of the source.

Columns and labels:
[1] = tested on: lentiviral vectors pseudotyped with the SARS-CoV-2 Spike protein (CoV-2 LV); experiment: microbe, parasite or virus in culture; assay type: cell-based; conditions: Severe acute respiratory syndrome coronavirus 2; 293-ACE2 cells (Table 1)
VSVg pseudotyped LV = assay type: cell-based
[2] = target: SARS-CoV-2 S-RBD(His)6 and human ACE2-Biot interaction (Severe acute respiratory syndrome coronavirus 2, UniProt P0DTC2); experiment: AlphaLISA competition assay of the S-RBD/ACE2 interaction; assay type: binding, SARS-CoV-2 / human; conditions: at 25 µM of drug; 3 nM of each protein
[3] = tested on: SARS-CoV-2 reference strain; experiment: microbe, parasite or virus in culture; assay type: cell-based
[4] = tested on: SARS-CoV-2 reference strain; experiment: microbe, parasite or virus in culture; assay type: cell-based; conditions: Severe acute respiratory syndrome coronavirus 2, Calu-3
SARS-CoV-2 = experiment: Antiviral activity summarised over all the cell lines; assay type: cell-based
HEK293T-ACE2 = conditions: HEK-293T cell line, within the 0-50µM range
A549-ACE2 = conditions: A549 cell line, within the 0-50µM range
Calu3 = Calu3 cell line, within the 0-50µM range
Caco2 = Caco2 cell line, within the 0-50µM range
in vitro [5] = conditions: human
in vitro [6] = conditions: human; remark: listed apart in the source
in vitro [7] = conditions: human; remark: listed apart in the source

With `C(=C\c1nc2ccccc2s1)/c1cccc(N(c2cccc(/C=C/c3nc4ccccc4s3)c2)c2cccc(/C=C/c3nc4ccccc4s3)c2)c1` [TP m 3BTZ compound, Tris {3-(2-(benzothiazole-2-yl)vinylphenyl}amine)] as the molecule, how does the pIC50 [1] read?
The pIC50 was 6.00.

And the “effect on the VSVg LVs infectivity” value (VSVg pseudotyped LV)?
Its value is “without significant effect”.

What about the “inhibition of the formation of the RBD/ACE2 complex (AlphaLISA)” value [2] of the same molecule?
Its value is 50%.

And the “inhibition of the viral replication” value ([3]; A549-ACE2 cells, SARS-CoV-2 reference strain, 24 hours)?
The value was “induced an inhibition of the viral replication”.

And the pIC50 ([3]; Severe acute respiratory syndrome coronavirus 2, A549-ACE2, A 549-ACE2 cells (Table 1))?
Its pIC50 is 5.60.

And the pIC50 ([4]; Calu3 cells (Table 1), read-out: IC50)?
Its pIC50 is 5.30.

And the pIC50 ([4]; Calu3 cells, SARS-CoV-2 reference strain, 24 hours, read-out: concentration leading to 50% inhibition of the viral replication)?
Its pIC50 is ~6.00.

What about the pIC50 (SARS-CoV-2; Severe acute respiratory syndrome coronavirus 2, among all the cell lines) of the same molecule?
Its pIC50 is 5.30 to 6.60.

And the selectivity indexes (SARS-CoV-2; among all the cell lines)?
The selectivity indexes was > 10.

And the “selectivity index (SI)” value (SARS-CoV-2; based on apparent IC50 and CC50 in the different cell lines)?
Its value is “higher than 50”.

What about the “cytotoxicity (MTT assay)” value (HEK293T-ACE2) of the same molecule?
The value was “no or poor cytoxoxicity”.

And the “cytotoxicity (MTT assay)” value (A549-ACE2)?
Its value is “no or poor cytoxoxicity”.

And the “cytotoxicity (MTT assay)” value (Calu3)?
The value was “no or poor cytoxoxicity”.

And the “cytotoxicity (MTT assay)” value (Caco2)?
The value was “no or poor cytoxoxicity”.

What about the CC50 (in vitro [5]) of the same molecule?
The CC50 was > 50000 nM.

What about the CC50 (in vitro [6]) of the same molecule?
The CC50 was > 50000 nM.

What about the CC50 (in vitro [7]) of the same molecule?
The CC50 was > 50000 nM.
